From the supplement of paper PMC10307832

Assays:
Experiment in all cases: relative viability (nuclei count vs DMSO), 5 days (fraction); higher = more cells survive
NCI-H520 = system: NCI-H520
Procedure, shortened: (§1)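 The day after seeding in 1536-well plates, lung cancer cell lines were treated by pin tool with a single drug, or with a fixed anchor-drug dose together with five library-drug doses (not always all listed) in √10 steps. After 5 days, a combined fix-and-stain solution (final 0.05% Triton X-100, 1% formaldehyde, 1 ug/ml Hoechst) was added. Nuclei counted on 4× images gave relative viability as treated counts over vehicle counts, reported as the median of duplicate plates.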

NCI-H1755 = system: NCI-H1755
Procedure, shortened: as §1

PC-3 [JPC-3] = system: PC-3 [JPC-3]
Procedure, shortened: as §1

LK-2 = system: LK-2
Procedure, shortened: as §1

NCI-H596 = system: NCI-H596
Procedure, shortened: as §1

ChaGo-K-1 = system: ChaGo-K-1
Procedure, shortened: as §1

EKVX = system: EKVX
Procedure, shortened: as §1

NCI-H441 = system: NCI-H441
Procedure, shortened: as §1

A-427 = system: A-427
Procedure, shortened: as §1

COR-L 105 = system: COR-L 105
Procedure, shortened: as §1

SK-MES-1 = system: SK-MES-1
Procedure, shortened: as §1

COc1cc2nccc(Oc3ccc(NC(=O)Nc4cc(C)on4)c(Cl)c3)c2cc1OC [Tivozanib] + O=C(CCCCCCC(=O)Nc1ccccc1)NO [Vorinostat] (partner 1 µM) showed a relative viability (NCI-H520; first compound 0.005 µM) of 0.729, a relative viability (NCI-H520; first compound 0.01581 µM) of 0.754 and a relative viability (NCI-H520; first compound 0.05 µM) of 0.691. The relative viability (NCI-H520; first compound 0.1581 µM) was 0.675, the relative viability (NCI-H520; first compound 0.5 µM) was 0.607 and the relative viability (NCI-H1755; first compound 0.005 µM) was 0.742. It also gave a relative viability (NCI-H1755; first compound 0.01581 µM) of 0.786, a relative viability (NCI-H1755; first compound 0.05 µM) of 0.739 and a relative viability (NCI-H1755; first compound 0.1581 µM) of 0.706. It also gave a relative viability (NCI-H1755; first compound 0.5 µM) of 0.587, a relative viability (PC-3 [JPC-3]; first compound 0.01581 µM) of 0.814 and a relative viability (PC-3 [JPC-3]; first compound 0.05 µM) of 0.801. It also gave a relative viability (PC-3 [JPC-3]; first compound 0.1581 µM) of 0.691, a relative viability (PC-3 [JPC-3]; first compound 0.5 µM) of 0.592 and a relative viability (LK-2; first compound 0.005 µM) of 0.317. For the same compound, the relative viability (LK-2; first compound 0.01581 µM) was 0.352, the relative viability (LK-2; first compound 0.05 µM) was 0.33 and the relative viability (LK-2; first compound 0.1581 µM) was 0.185. It also gave a relative viability (LK-2; first compound 0.5 µM) of 0.186, a relative viability (NCI-H596; first compound 0.005 µM) of 0.618 and a relative viability (NCI-H596; first compound 0.01581 µM) of 0.569. The relative viability (NCI-H596; first compound 0.05 µM) was 0.683, the relative viability (NCI-H596; first compound 0.5 µM) was 0.716 and the relative viability (ChaGo-K-1; first compound 0.005 µM) was 0.692. The relative viability (ChaGo-K-1; first compound 0.01581 µM) was 0.727, the relative viability (ChaGo-K-1; first compound 0.05 µM) was 0.773 and the relative viability (ChaGo-K-1; first compound 0.1581 µM) was 0.756. It also gave a relative viability (ChaGo-K-1; first compound 0.5 µM) of 0.63, a relative viability (EKVX; first compound 0.005 µM) of 0.787 and a relative viability (EKVX; first compound 0.01581 µM) of 0.684. The relative viability (EKVX; first compound 0.05 µM) was 0.803, the relative viability (EKVX; first compound 0.5 µM) was 0.765 and the relative viability (NCI-H441; first compound 0.005 µM) was 0.765. For the same compound, the relative viability (NCI-H441; first compound 0.01581 µM) was 0.771, the relative viability (NCI-H441; first compound 0.05 µM) was 0.743 and the relative viability (NCI-H441; first compound 0.1581 µM) was 0.801. It also gave a relative viability (NCI-H441; first compound 0.5 µM) of 0.745, a relative viability (A-427; first compound 0.005 µM) of 0.741 and a relative viability (A-427; first compound 0.01581 µM) of 0.888. For the same compound, the relative viability (A-427; first compound 0.05 µM) was 0.824, the relative viability (A-427; first compound 0.1581 µM) was 0.857 and the relative viability (A-427; first compound 0.5 µM) was 0.812. For the same compound, the relative viability (COR-L 105; first compound 0.005 µM) was 0.696, the relative viability (COR-L 105; first compound 0.01581 µM) was 0.743 and the relative viability (COR-L 105; first compound 0.05 µM) was 0.801. It also gave a relative viability (COR-L 105; first compound 0.1581 µM) of 0.821, a relative viability (COR-L 105; first compound 0.5 µM) of 0.794 and a relative viability (SK-MES-1; first compound 0.005 µM) of 1.03. The relative viability (SK-MES-1; first compound 0.01581 µM) was 1.07.
